Values of other authors in patent publication US20190203187A1, “CHEMILUMINESCENT WETNESS INDICATOR FOR ABSORBENT PRODUCTS” (International Paper Company, priority 2014, published 2019).

Tests used:
[1] = biological target: T1, Renilla Luciferase (Renilla reniformis, UniProt P27652)
T1 sequence (P27652 1-311): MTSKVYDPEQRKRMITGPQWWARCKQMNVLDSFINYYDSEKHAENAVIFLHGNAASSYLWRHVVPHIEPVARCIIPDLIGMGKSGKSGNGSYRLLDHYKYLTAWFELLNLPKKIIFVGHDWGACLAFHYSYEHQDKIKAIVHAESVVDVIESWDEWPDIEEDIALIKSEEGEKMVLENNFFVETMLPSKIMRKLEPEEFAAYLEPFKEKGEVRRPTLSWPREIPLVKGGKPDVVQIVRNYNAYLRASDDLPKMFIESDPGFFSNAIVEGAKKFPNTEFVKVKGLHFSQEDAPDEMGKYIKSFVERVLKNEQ

[2] = test system: Gaussia luciferase (Gluc)
[3] = biological target: T2, apoaequorin (Aequorea victoria, UniProt P07164); details: for luminescence intensity relative to coelenterazine (native form): coelenterazine-apoaequorin (aequorin) complex
T2 sequence (P07164 8-196): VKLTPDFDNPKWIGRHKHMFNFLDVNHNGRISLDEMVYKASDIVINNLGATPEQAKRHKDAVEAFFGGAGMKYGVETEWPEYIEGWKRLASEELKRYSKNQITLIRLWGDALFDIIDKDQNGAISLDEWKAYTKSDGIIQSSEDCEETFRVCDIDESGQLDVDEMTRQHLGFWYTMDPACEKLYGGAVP

Compound | quality as substrate for Renilla luciferase [1] | luminescence intensity relative to coelenterazine (native form) [3] [times] | other results
O=c1c(Cc2ccccc2)nc2c(Cc3ccccc3)[nH]c(-c3ccccc3)cn1-2 [coelenterazine 400a, coelenterazine 400a (2-2′(4-dehydroxy)) coelenterazine] | good substrate |  | emission maximum ([1]; substrate for Renilla luciferase, BRET): 400 nm; oxidation with Gaussia luciferase [2]: does not oxidize well
Oc1ccc(Cc2nc3c(CC4CCCC4)nc(-c4ccc(O)cc4)cn3c2O)cc1 [coelenterazine cp] |  | 15 | 
Oc1ccc(Cc2nc3c(Cc4ccccc4)nc4c(n3c2O)CCc2cc(O)ccc2-4)cc1 [coelenterazine e] |  |  | quality as substrate for apoaequorin [3]: poor substrates
Oc1ccc(-c2cn3c(O)c(Cc4ccc(F)cc4)nc3c(CC3CCCC3)n2)cc1 [coelenterazine fcp] | poor substrate | 135 | 
coelenterazine f |  | 20 | emission maximum longer than that of the native form ([3]; coelenterazine-apoaequorin complex): about 8 nm
